Data reported in patent US4614731A, “Peptide having immunopotentiating activity similar to thymosin alpha1” (Hoffmann-La Roche Inc., priority 1985, dated 1986).
Ends that are not written are not given here.

How the values were obtained:
[1] = test system: T cell differentiation and function; assay: in vitro and in vivo assay systems designed to measure T cell differentiation and function
Candida albicans = assay: Growth of Candida albicans in C3 H/HeJ mice treated daily i.p. with thymic derivatives; format: in vivo; conditions: for Protection in comparison with control mice: daily i.p. graded doses beginning two days before i.v. challenge with 4×10^4 cells of C. albicans; for C. albicans cell count: average number of organisms in left kidneys of nine mice, days 7, 14 and 21 after infection; for Most active (optimum) daily dose: i.p., resistance to infection with C. albicans; for Potency relative to fraction 5 in ability to induce resistance to infection with C. albicans: ratio of optimum doses
Source text: The biological activity of thymosin alpha1 can be determined by utilizing in vivo assays known in the art. Thus, for example, inbred strains of mice are known to vary in their susceptability to infection with C. albicans. Thus, mice of such strains as C3 H/HeJ or CBA/CaJ are highly susceptible to infection, whereas mice of such strains as C57 Bl/10SNJ or C57 Bl/KsJ were highly resistant to challenge. Since resistance to infection with C. albicans is associated with cell-mediated processes, and therefore with T-lymphocytes, thymic hormones should have an effect on the host response.
Thymosin fraction5, alpha1, or alpha11 was injected daily i.p. in graded doses into three different groups of mice, beginning two days before intravenous challenge with 4×10^4 cells of C. albicans.
Mice were treated daily with the indicated doses of thymosin fraction 5,
thymosin α1 or thymosin α11 and challenged with 4
× 10^4 cells of C. albicans two days after the start of
*Three mice from each set were sacrificed on days 7, 14 and 21 after
infection and the values represent the average number of organisms in the
left kidneys of the nine mice in each set.

[2] = test system: T cell differentiation and function; conditions: several in vitro and in vivo assay systems; cited from earlier work

Substance | Biological activity relative to thymosin alpha1 [1] | Protection in comparison with control mice (Candida albicans) | C. albicans cell count (Candida albicans; dose 80 ng/mouse daily i.p.) | C. albicans cell count (Candida albicans; dose 160 ng/mouse daily i.p.) | C. albicans cell count (Candida albicans; dose 320 ng/mouse daily i.p.) | C. albicans cell count (Candida albicans; dose 640 ng/mouse daily i.p.) | Most active (optimum) daily dose (Candida albicans) | Potency relative to fraction 5 in ability to induce resistance to infection with C. albicans (Candida albicans) | Activity relative to fraction 5 [2]
Ac-SDAAVDTSSEITTKDLKEKKEVVEEAENGREAPAN [Thymosin α11] | same quantitative and qualitative biological activity | provided protection | 4200 | 510 | 320 | 1260 | 160-320 ng per mouse | about 30 times | –
Thymosin α1: first active peptide isolated and characterized from thymosin fraction 5 (Ac-SDAAVDTSSEITTKDLKEKKEVVEEAEN; ends and bridges not checked; UniProt P06454 2-29, looked up) | – | provided protection | 5870 | 190 | 780 | 1410 | 160-320 ng per mouse | about 30 times | one or more orders of magnitude more active than fraction 5
